Literature values in US7163699B2, “Progestin co-micronized with a surfactant pharmaceutical composition comprising same methods for making same and uses thereof” (Laboratories Besins International, priority 2001, dated 2007).

Details: co-micronization with sodium lauryl sulfate or a sucrose ester of stearic acid

solubility of phenitoin: not improved
SMILES: O=C1NC(=O)C(c2ccccc2)(c2ccccc2)N1 [phenitoin]
